Experimental data from US8691818B2, “Cyclic triazo and diazo sodium channel blockers” (University Of Greenwich, priority 2008, dated 2014).
Counter-ions that a name gives are not always drawn.

Key:
sodium channel = assay: [14C]guanidine flux: veratrine-evoked uptake of [14C]guanidine into rat forebrain synaptosomes (primary sodium channel assay); type: biochemical; conditions: 30° for 2½ min
Method: The screening strategy is designed to select compounds with appropriate sodium channel blocking activity and low side effect liability. To this end all compounds are processed through the primary sodium channel assay (veratrine-evoked uptake of [^14C]guanidine into rat forebrain synaptosomes) and IC50 values computed from generated concentration-effect curves.
Experiments were performed using forebrain (whole brain less cerebellum/medulla) from Male Wistar rats weighing 175-250 g. All efforts were made to reduce the number of animals used and all experiments were carried out in accordance with the UK Animals (Scientific Procedures) Act, 1986 and the European Community Council Directive of 24 Nov. 1986 (86/609/EEC). Following killing of animals by stunning and decapitation, the forebrain (whole brain less cerebellum/medulla) was rapidly dissected and transferred to a weighed tube containing ice-cold 0.25M sucrose.
Synaptosomes (heavy and light mitochondrial fraction containing synaptosomes) were prepared by transferring the forebrain (of known wet weight) to a glass Potter vessel to which 9 volumes ice-cold 0.25M sucrose had been added and homogenising, using a teflon pestle, by 8 ‘up and down strokes’ of a Braun Potter S motor driven homogeniser set to 900 rpm. The resulting homogenate was centrifuged at 1036×g at 4° for 10 min and the supernatant collected. The remaining pellet was resuspended, as above, in fresh ice-cold 0.25M sucrose and the centrifugation step repeated. The supernatant fractions were pooled and centrifuged at 40,000×g (average) at 4° for 15 min and the resulting pellet resuspended in the appropriate assay buffer at a concentration of 20-25 mg wet weight per ml appropriate assay buffer.
Both assays were carried out using 14 ml polypropylene test tubes to which a range of concentrations of the compounds under test were added.
The [^14C] guanidinine flux assay was measured using the method of Pauwels P J et al (1986) but carried out@30° for 2½ min.
(§1) Data are presented as mean±sem of number of experiments indicated in brackets.

[1] = biological target: T1, DiHydroFolate Reductase (DHFR) (Rattus norvegicus, UniProt Q920D2); assay: Inhibition of binding of [3H]methotrexate to rat liver homogenate supernatant; conditions: 125 μM; for inhibition at 125 µM: read-out: [3H]mtx binding (% inhibition @ 125 μM)
T1 construct: from tissue; host or cells: rat liver homogenate supernatant
T1 sequence (Q920D2 1-187): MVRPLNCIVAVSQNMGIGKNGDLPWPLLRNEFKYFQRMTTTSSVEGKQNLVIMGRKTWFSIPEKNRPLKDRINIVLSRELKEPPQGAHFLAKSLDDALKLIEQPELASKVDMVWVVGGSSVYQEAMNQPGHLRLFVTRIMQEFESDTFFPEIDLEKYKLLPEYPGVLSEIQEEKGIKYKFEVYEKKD
Method: All steps were carried out at 4° (or on ice). Freshly dissected rat liver was dissected into 0.25M ice-cold Sucrose and subsequently homogenised (U-turrax) in 50 mM pH 6.0 phosphate buffer (10 ml/g tissue) containing 15 mM Dithiothreitol. The resulting homogenate was centrifuged@47,500×g for 20 min and supernatant (filtered through cotton wool to remove fatty lumps) stored @ −80° before use (Rothenberg et al).
Inhibition of the binding of [^3H]methotrexate to rat liver homogenate supernatant fractions were carried out essentially as described by Arons et al, 1975.
as §1

SMILES | IC50 (sodium channel) [µM] | inhibition at 125 µM [1] [%] | further results
Cn1cc(-c2cccc(Cl)c2Cl)c(N)nc1=N [CEN-42, 4(2)-Amino-5-(2,3-dichlorophenyl)-2,4(2,5)-dihydro-2(4)-imino-1-methyl pyrimidine] | – | – | IC50 (sodium channel; listed as 42): 617 µM; [3H]mtx binding (% inhibition @ 125 μM) ([1]; listed as 42, 125 µM): 32%
Cn1cc(-c2cccc(Cl)c2Cl)c(N)nc1=N [CEN-43, 4(2)-Amino-5-(2,3-dichlorophenyl)-2,4(2,5)-dihydro-2(4)-imino-1-methylpyrimidine] | – | – | IC50 (sodium channel; listed as 43): 631 µM; [3H]mtx binding (% inhibition @ 125 μM) ([1]; listed as 43, 125 µM): 20%
Nc1nnc(-c2cccc3c2OC(F)(F)O3)c(N)n1 [CEN-70, 3,5-Diamino-6-[4-(2,2-difluorobenzodioxolo)]-1,2,4-triazine] | 1510 | 66 | –
COc1cc(-c2nn(C)c(=N)nc2N)cc(OC)c1OC [CEN-101, 5(3)-Amino-6-(3,4,5-trimethoxyphenyl)-2,3(2,5)-dihydro-3(5)-imino-2-methyl-1,2,4-triazine methanesulfonate] | > 1000 | 65 | –
Nc1nnc(-c2ccc(Oc3ccc(-c4nnc(N)nc4N)cc3)cc2)c(N)n1 [CEN-111, Bis-[3,5-Diamino-6-(4-ARYL)-1,2,4-triazine]] | 912 | 97 | –
C/C(=C\c1ccccc1)c1nnc(N)nc1N [CEN-112, 3,5-Diamino-6-[E-2-(3-phenyl)propenyl]-1,2,4-triazine] | 1000 | 84 | –
Cn1nc(-c2ccc(Oc3ccc(-c4nn(C)c(=N)nc4N)cc3)cc2)c(N)nc1=N [CEN-116] | 955 | 70 | –
Nc1nnc(-c2ccc3c(c2)OC(F)(F)O3)c(N)n1 [CEN-117, 3,5-Diamino-6-[5-(2,2-difluorobenzodioxolo)]-1,2,4-triazine] | > 1000 | 79 | –
CCn1nc(-c2cc(OC)c(OC)c(OC)c2)c(N)nc1=N [CEN-119, 5(3)-Amino-6-(3,4,5-trimethoxyphenyl)-2,3(2,5)-dihydro-3(5)-imino-2-ethyl-1,2,4-triazine methanesulfonate] | 1950 | 52 | –
Nc1nnc(-c2cc3ccccc3oc2=O)c(N)n1 [CEN-133] | > 2000 | 17 | –
Cn1nc2c3ccccc3c3ccccc3c2nc1=N [CEN-136] | 229 | 27 | –
Cn1nc(-c2ccccc2OC(F)F)c(N)nc1=N [CEN-146, 5(3)-Amino-6-(2-difluoromethoxyphenyl)-2,3(2,5)-dihydro-3(5)-imino-2-methyl-1,2,4-triazine methanesulfonate] | 871 | 3 | –
COc1ccc2c(OC)cccc2c1-c1nnc(N)nc1N [CEN-156] | – | – | IC50 (sodium channel; listed as 156): 246 µM; [3H]mtx binding (% inhibition @ 125 μM) ([1]; listed as 156, 125 µM): 32%
COc1ccc2c(OC)cccc2c1-c1nnc(N)nc1N [CEN-158] | – | – | IC50 (sodium channel; listed as 158): > 1000 µM; [3H]mtx binding (% inhibition @ 125 μM) ([1]; listed as 158, 125 µM): −1%
Nc1nnc(-c2cccc(Cl)n2)c(N)n1 [CEN-166, 3,5-Diamino-6-[2-(6-chloropyidyl)]-1,2,4-triazine] | 1180 | 88 | –
Nc1nnc(-c2cccnc2Oc2ccccc2)c(N)n1 [CEN-167, 3,5-Diamino-6-[3-(2-phenoxypyidyl)]-1,2,4-triazine] | > 2000 | -2 | –
Nc1nnc(-c2cnc(Cl)c(Cl)c2)c(N)n1 [CEN-168, 3,5-Diamino-6-[3-(5,6-dichloropyidyl)]-1,2,4-triazine] | 1000 | 95 | –
Nc1nnc(-c2cc(C(F)(F)F)cc(C(F)(F)F)c2)c(N)n1 [CEN-175, 3,5-Diamino-6-[3,5 (bis-trifluoromethyl)phenyl]-1,2,4-triazine] | – | – | IC50 (sodium channel; listed as 175): > 2000 µM; [3H]mtx binding (% inhibition @ 125 μM) ([1]; listed as 175, 125 µM): −4%
Nc1nnc(-c2cccc(C(F)(F)F)c2Cl)c(N)n1 [CEN-176, 3,5-Diamino-6-(2-chloro-3-trifluoromethylphenyl)-1,2,4-triazine] | 309 | 55 | –
CC(C)c1cc(C(C)C)c(-c2nnc(N)nc2N)c(C(C)C)c1 [CEN-180, 3,5-Diamino-6-(2,4,6-triisopropylphenyl)-1,2,4-triazine tosylate] | > 2000 | -2 | –

Second part, led by results:

IC50 (sodium channel) [µM] | inhibition at 125 µM [1] [%] | SMILES | further results
676 | 87 | Cn1nc(-c2cccs2)c(N)nc1=N [CEN-61, 5(3)-Amino-6-(2-thienyl)-2,3(2,5)-dihydro-3(5)-imino-2-methyl-1,2,4-triazine methanesulfonate] | –
724 | 101 | Nc1cnc(-c2cccc3c2OC(F)(F)O3)c(N)n1 [CEN-89, 2,6-Diamino-3-(2,2-difluorobenzodioxol-4-yl)pyrazine] | –
97.7 | 53 | C[n+]1cc(N)nc(N)c1-c1cc(Cl)cc(Cl)c1Cl [CEN-90] | –
372 | 94 | CC(C)OCCn1nc(-c2cccc(Cl)c2Cl)c(N)nc1=N [CEN-91, 5(3)-Amino-6-(2,3-dichlorophenyl)-2,3(2,5)-dihydro-3(5)-imino-2-(2-isopropoxy)ethyl-1,2,4-triazine] | –
58.9 | 25 | Cn1nc(-c2ccc(Oc3ccccc3)cc2)c(N)nc1=N [CEN-102, 5(3)-Amino-6-(4-phenoxyphenyl)-2,3(2,5)-dihydro-3(5)-imino-2-methyl-1,2,4-triazine methanesulfonate] | –
4.9 | 6 | Cc1ccc(-c2nc(=N)n(C)nc2-c2ccc(C)cc2)cc1 [CEN-134, 3-Amino-2-methyl-5,6-bis(4-methylphenyl)-1,2,4-triazine mesylate] | –
43.7 | 89 | Cn1nc(-c2cc(Br)c(Br)o2)c(N)nc1=N [CEN-135, 5(3)-Amino-6-[2-(4,5-dibromofuryl)]-2,3(2,5)-dihydro-3(5)-imino-2-methyl-1,2,4-triazine methanesulfonate] | –
23.4 | 4 | Cn1nc(C(C)(c2ccccc2)c2ccccc2)c(N)nc1=N [CEN-149, 5(3)-Amino-6-(1,1-diphenylethyl)-2,3(2,5)-dihydro-3(5)-imino-2-methyl-1,2,4-triazine methanesulfonate] | –
16.2 | 27 | Cn1nc(C2(c3ccc(Cl)cc3)CCCC2)c(N)nc1=N [CEN-150, 5(3)-Amino-6-{1-[1-(4-chlorophenyl)]cyclopentyl}-2,3(2,5)-dihydro-3(5)-imino-2-methyl-1,2,4-triazine methanesulfonate] | –
12 | 57 | CCn1nc(-c2cccc(-c3ccccc3)c2)c(N)nc1=N [CEN-162, 5(3)-Amino-6-(3-biphenyl)-2,3(2,5)-dihydro-3(5)-imino-2-ethyl-1,2,4-triazine methanesulfonate] | –
692 | 0 | Nc1nnc(-c2cccnc2Cl)c(N)n1 [CEN-164, 3,5-Diamino-6-[3-(2-chloropyidyl)]-1,2,4-triazine] | –
263 | 29 | CCCC(CCC)c1nnc(N)nc1N [CEN-170, 3,5-Diamino-6-(1-propylbutyl)-1,2,4-triazine tosylate] | –
2 | – | Nc1nnc(-c2cccc(OCc3ccc(C(F)(F)F)cc3C(F)(F)F)c2)c(N)n1 [CEN-171, 3,5-Diamino-6-[3-(2,4-trifluoromethylbenzyloxy)phenyl]-1,2,4-triazine] | [3H]mtx binding (% inhibition @ 125 μM) [1]: 91%
159 | 34 | Nc1nnc(-c2ccc3ccccc3n2)c(N)n1 [CEN-173, 3,5-Diamino-6-(2-quinolyl)-1,2,4-triazine] | –
28 | 27 | CCn1nc(-c2cccc(C(F)(F)F)c2Cl)c(N)nc1=N [CEN-178, 5(3)-Amino-6-(2-chloro-3-trifluoromethyphenyl)-2,3(2,5)-dihydro-3(5)-imino-2-ethyl-1,2,4-triazine methanesulphonate] | –
34 | 104 | Nc1nnc(-c2ccc(F)c(Oc3ccccc3)c2)c(N)n1 [CEN-184, 3,5-Diamino-6-(4-fluoro-3-phenoxylphenyl)-1,2,4-triazine tosylate] | –
